According to ChEMBL document CHEMBL1158843, “Development of a radiochemical cyclooxygenase-1 and -2 in vitro assay for identification of natural products as inhibitors of prostaglandin biosynthesis” (J Nat Prod, 1998):

Target: T1, Prostaglandin G/H synthase 1 (Bos taurus) (UniProt O62664)
T1 sequence (whole entry): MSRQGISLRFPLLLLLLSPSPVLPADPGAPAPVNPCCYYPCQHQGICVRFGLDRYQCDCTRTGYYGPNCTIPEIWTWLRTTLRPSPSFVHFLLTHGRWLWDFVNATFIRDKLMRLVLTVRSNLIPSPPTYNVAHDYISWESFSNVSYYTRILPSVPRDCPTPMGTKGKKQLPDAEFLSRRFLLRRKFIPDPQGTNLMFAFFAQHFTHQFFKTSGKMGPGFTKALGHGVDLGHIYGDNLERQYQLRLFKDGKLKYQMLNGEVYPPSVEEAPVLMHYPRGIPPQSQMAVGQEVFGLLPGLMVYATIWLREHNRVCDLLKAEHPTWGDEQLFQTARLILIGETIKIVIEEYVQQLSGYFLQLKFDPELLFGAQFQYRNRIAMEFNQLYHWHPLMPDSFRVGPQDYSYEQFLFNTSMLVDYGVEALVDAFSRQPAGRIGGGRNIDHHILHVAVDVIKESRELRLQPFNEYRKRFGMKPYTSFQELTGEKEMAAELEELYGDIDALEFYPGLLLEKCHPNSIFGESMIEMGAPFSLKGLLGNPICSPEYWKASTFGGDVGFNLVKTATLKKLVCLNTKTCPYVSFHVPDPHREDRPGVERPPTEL
Assay: Inhibition of bovine seminal microsomal COX1 assessed as PGE2 production at 100 uM preincubated for 10 mins

- inhibition: 9%
SMILES: CS(=O)(=O)Nc1ccc([N+](=O)[O-])cc1OC1CCCCC1
